Two compounds from article PMC9926489, “Chemical Optimization of Selective Pseudomonas aeruginosa LasB Elastase Inhibitors and Their Impact on LasB-Mediated Activation of IL-1β in Cellular and Animal Infection Models” (ACS Infectious Diseases, 2023) can be followed below.

Structures are written as SMILES.

Data set [1] addresses T1, purified LasB (Pseudomonas aeruginosa, UniProt P14756).
T1 construct: The mature LasB protein is a 33 kDa metalloprotease, which is secreted from P. aeruginosa; host or cells: P. aeruginosa PAO1 (native secretion, culture supernatant)
The experiment in a line: LasB inhibition, fluorimetric Abz-AGLA-Nba hydrolysis assay with purified LasB. Type of data set: biochemical. From the text:
This was chosen as the starting point for a medicinal chemistry-driven lead optimization program aiming to improve potency and solubility whilst retaining selectivity against host metalloenzymes. All synthesized compounds were initially assessed in a fluorimetric assay measuring hydrolysis of a fluorogenic substrate Abz-Ala-Gly-Leu-Ala-4-nitrobenzylamide (Abz-AGLA-Nba) by purified LasB and IC50 values determined (Tables 1 and 2). Inhibition of elastin hydrolytic activity was confirmed using an orthogonal assay measuring hydrolysis of Elastin Congo Red (ECR) complex by LasB prepared directly from a P. aeruginosa culture supernatant (Tables 1 and 2). […] Aqueous solubility was determined for most compounds (Tables 1 and 2).
Native LasB protein was purified from culture supernatants of P. aeruginosa strain PAO1 (Charles River Laboratories, U.K.). Briefly, the sample was concentrated by ultrafiltration and the protein was purified by chromatography using an anion exchange (pH 8.5) step followed by gel filtration. This procedure yielded an enzyme preparation (0.8 mg/mL) of >98% purity. The enzyme was stored at −80 °C.
(§1) LasB inhibition assays were performed using purified LasB enzyme (1 ng/well) for compound screening or using culture supernatants (prepared as described in the ECR assay) for testing LasB variants. Hydrolysis of the fluorogenic peptide substrate 2-aminobenzoyl-Ala-Gly-Leu-Ala-4-nitrobenzylamide (Abz-AGLA-Nba; Peptide International) in 50 mM Tris-HCl (pH 7.4), supplemented with 2.5 mM CaCl2 was followed using an Envision microplate reader (PerkinElmer) at 315 nm excitation and 430 nm emission. For screening of lead compounds, assays were performed in the presence of 0.01% Triton X-100 with a range of inhibitor concentrations from 0.003 to 3.2 μM. IC50 values were determined from Hill plots using Dotmatics Studies ELN software. For the mechanism of inhibition studies, hydrolysis rates were measured in the presence of variable concentrations of substrate and inhibitor, and the inhibition constant (Ki) was determined using Dixon plot analysis.[31]

The target of the next data set is MMP-9 (Homo sapiens, UniProt P14780). The experiment in a line: MMP-9 selectivity assay. The format is biochemical. The settings on record: human MMP-9. How it is done: Selectivity of compound inhibition was evaluated against other proteases at concentrations between 0.4 and 200 μM. Activity against rabbit angiotensin-converting enzyme (ACE, Sigma) was assessed using 10 μM fluorogenic substrate Abz-Phe-Arg-Lys(Dnp)-P (Enzo Life Sciences) in 100 mM Tris-HCl pH 7, 50 mM NaCl, 10 μM Zn SO4. Activity against human matrix metalloproteases (MMP)-2 and MMP-9 was assessed in 50 mM HEPES pH 7.5, 10 mM CaCl2, 0.01% Triton X-100 using 4 μM fluorogenic substrate Mca-Pro-Leu-Gly-Leu-Dpa-Ala-Arg-NH2 (Enzo Life Sciences). Activity against MMP-1 and MMP-13 was assessed in 25 mM HEPES pH 7.5, 100 mM NaCl, 100 mM CaCl2, 0.0005% Brij using 7.5 μM fluorogenic substrate Mca-Lys-Pro-Leu-Gly-Leu-Dpa-Ala-Arg-NH2 (Sigma) for MMP-1 and 1.25 μM fluorogenic substrate Mca-Pro-Cha-Gly-Nva-His-Ala-Dpa-NH2 (Millipore) for MMP-13. Activity against human neutrophil elastase (HNE, Enzo Life Sciences) was assessed in 100 mM HEPES pH 7.5, 500 mM NaCl, 0.01% of Triton X-100 using 100 μM fluorogenic substrate MeOSuc-AAPV-AMC (Enzo Life Sciences).

Data set [2] can be described thus: Plasma protein binding by equilibrium dialysis. The settings on record: mouse plasma, 10 μM compound; read-out: PPB (mouse) % bound (converted). Type of data set: in vitro ADME. How it is done: Mouse plasma protein binding (PPB) was determined by equilibrium dialysis with 10 μM compound over 4 h at 37 °C. Compound recoveries were determined by HPLC-MS/MS.
On the technique in general: In equilibrium dialysis free small molecules cross a membrane that holds back macromolecules.

For data set [3], the target named is T2, LasB Q102R, S241G, D244N, K282N, R471S (Pseudomonas aeruginosa, UniProt P14756, D244N/K282N/R471S/S241G).
T2 construct: Most changes were identified in the mature peptide, however some occurred in the propeptide domain; endogenous in cells; host or cells: P. aeruginosa clinical CF isolate, culture supernatant
Nature of the data set: LasB variant inhibition, culture supernatant: five substitutions. The format is biochemical, P. aeruginosa.
From the text: (§2) Compounds 12 and 16 were discovered as a result of optimizing potency against the LasB protein expressed from the wild-type (WT) reference strain P. aeruginosa PAO1. To understand the relative prevalence of the WT LasB protein versus other variants in clinical respiratory P. aeruginosa strains, the full-length lasB gene was amplified by PCR from 255 clinical isolates (obtained from CF sputum samples). […] Most changes were identified in the mature peptide, however some occurred in the propeptide domain, which could affect LasB processing (marked in italics in Table 4).
as §1, with “For screening of lead compounds, assays were performed in the presence of 0.01% Triton X-100 with a range of inhibitor concentrations from 0.003 to 3.2 μM.” left out

In the next data set the target is T3, LasB T65I (Pseudomonas aeruginosa, UniProt P14756).
T3 construct: endogenous in cells; host or cells: P. aeruginosa clinical CF isolate, culture supernatant
The experiment in a line: LasB variant inhibition, culture supernatant: T65I. The format is biochemical, P. aeruginosa.
From the text: as §2
as §1, with “For screening of lead compounds, assays were performed in the presence of 0.01% Triton X-100 with a range of inhibitor concentrations from 0.003 to 3.2 μM.” left out

For another data set, the target named is T4, LasB S460T (Pseudomonas aeruginosa, UniProt P14756, S460T).
T4 construct: Most changes were identified in the mature peptide, however some occurred in the propeptide domain; endogenous in cells; host or cells: P. aeruginosa clinical CF isolate, culture supernatant
Nature of the data set: LasB variant inhibition, culture supernatant: S460T. The format is biochemical, P. aeruginosa.
From the text: as §2
as §1, with “For screening of lead compounds, assays were performed in the presence of 0.01% Triton X-100 with a range of inhibitor concentrations from 0.003 to 3.2 μM.” left out

For data set [4], the target named is T1, purified LasB. Nature of the data set: Inhibition of LasB-mediated proteolysis of human serum IgG (SDS-PAGE). The format is biochemical, P. aeruginosa. Conditions: for inhibition of generation of 37 kDa IgG degradation product by LasB: at 10 μM inhibitor. Here is the method: To confirm if compounds 12 and 16 were able to inhibit this activity, human serum IgG was incubated with purified LasB in the presence of varying concentrations of inhibitors and the products analyzed by SDS-PAGE.
This protocol was adapted from Cathcart et al.[25] Briefly, 10 μg of IgG from human serum (Sigma) were incubated with 100 ng purified LasB in assay buffer (50 mM Tris-HCl pH 7.4, 2.5 mM CaCl2) for 4 h at 37 °C, with or without variable concentrations of inhibitor. Samples were then denatured and analyzed by 4–15% gradient SDS polyacrylamide gel electrophoresis (SDS-PAGE) and the gel stained using Coomassie blue. The IgG subunits are visualized as two bands at 28 kDa (light chain) and 54 kDa (heavy chain). Proteolysis by LasB results in the generation of a fragment of the heavy chain detected of approximately 37 kDa. Bands were quantified using ImageJ software, and IC50 values were determined using Prism software (GraphPad).

T1 sequence (P14756 198-498): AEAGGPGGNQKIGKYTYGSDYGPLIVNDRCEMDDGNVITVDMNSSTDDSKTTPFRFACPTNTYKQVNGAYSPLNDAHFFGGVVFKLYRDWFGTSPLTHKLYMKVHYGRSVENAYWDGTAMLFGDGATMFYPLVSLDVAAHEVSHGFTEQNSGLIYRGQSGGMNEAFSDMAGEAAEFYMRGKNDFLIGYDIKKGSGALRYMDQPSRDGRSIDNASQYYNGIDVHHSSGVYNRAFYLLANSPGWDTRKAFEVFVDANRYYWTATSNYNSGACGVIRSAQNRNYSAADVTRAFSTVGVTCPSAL
T3 sequence (P14756 198-498, stated change not applied): as the sequence (P14756 198-498) above
T2 sequence (P14756 198-498, looked up, stated change not applied): as the sequence (P14756 198-498) above
MMP-9, sequence (P14780 94-707): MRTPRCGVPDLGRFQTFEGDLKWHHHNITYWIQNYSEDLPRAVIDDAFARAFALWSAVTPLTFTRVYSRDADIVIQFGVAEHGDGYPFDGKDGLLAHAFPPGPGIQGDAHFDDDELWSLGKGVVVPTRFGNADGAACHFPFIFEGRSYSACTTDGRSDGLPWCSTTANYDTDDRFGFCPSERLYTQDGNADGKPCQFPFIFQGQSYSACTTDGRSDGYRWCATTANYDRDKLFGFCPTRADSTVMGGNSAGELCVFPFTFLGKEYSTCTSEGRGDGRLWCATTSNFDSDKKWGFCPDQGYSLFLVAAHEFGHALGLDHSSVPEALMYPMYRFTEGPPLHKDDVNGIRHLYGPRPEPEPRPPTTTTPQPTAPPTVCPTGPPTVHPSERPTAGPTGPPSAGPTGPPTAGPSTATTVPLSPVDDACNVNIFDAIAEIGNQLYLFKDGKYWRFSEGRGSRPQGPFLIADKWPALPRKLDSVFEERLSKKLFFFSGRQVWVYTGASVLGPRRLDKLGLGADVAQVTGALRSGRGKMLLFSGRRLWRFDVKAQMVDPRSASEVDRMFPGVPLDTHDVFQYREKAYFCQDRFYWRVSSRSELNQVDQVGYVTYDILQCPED
T4 sequence (P14756 198-498 S460T): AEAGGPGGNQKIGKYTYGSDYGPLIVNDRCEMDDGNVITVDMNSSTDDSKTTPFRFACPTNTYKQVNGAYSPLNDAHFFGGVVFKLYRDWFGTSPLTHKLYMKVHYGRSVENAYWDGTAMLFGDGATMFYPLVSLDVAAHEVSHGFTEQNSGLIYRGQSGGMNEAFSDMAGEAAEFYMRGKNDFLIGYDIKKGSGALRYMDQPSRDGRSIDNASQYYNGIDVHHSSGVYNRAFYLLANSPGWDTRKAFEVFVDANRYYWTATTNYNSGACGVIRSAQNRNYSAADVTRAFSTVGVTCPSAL

Regarding `COc1cc2sc(CNC(=O)C3(CC(=O)O)Cc4ccccc4C3)nc2cc1OCCC[N+](C)(C)C` [Compound 12], the concentration for half-maximal inhibition (IC50) (as a rule, the concentration that inhibits the measured activity by half) was 130 nM against purified LasB [1]; above 200000 nM at MMP-9; 183 nM in data set [3]; 216 nM against LasB T65I; 211 nM at LasB S460T; 2590 nM against purified LasB [4]. Further, the Ki (as a rule, the dissociation constant of the complex between target and ligand, obtained from inhibition or displacement) at purified LasB [1] was found to be 35 nM. Also, the fraction unbound at 4 h, 10 μM in data set [2] was 0.24. Further, the “inhibition of generation of 37 kDa IgG degradation product by LasB” value on purified LasB [4] is recorded as “complete inhibition”.

In the case of `COc1cc2sc(CNC(=O)C3(CC(=O)O)Cc4cc(F)c(F)cc4C3)nc2cc1OCCC[N+](C)(CCO)CCO` [Compound 16], the IC50 on purified LasB [1] was 80 nM; against MMP-9, above 200000 nM; in data set [3], 178 nM; at LasB T65I, 182 nM; at LasB S460T, 201 nM; at purified LasB [4] it was 1290 nM. The same compound yielded a Ki at purified LasB [1] of 32 nM. The fraction unbound at 4 h, 10 μM in data set [2] is 0.18. Further, the “inhibition of generation of 37 kDa IgG degradation product by LasB” value against purified LasB [4] is listed as “complete inhibition”.
